Source: US8969378B2, “Inhibitor of the differentiation of T cells into Th1 cells” (Kowa Co., Ltd., priority 2007, dated 2015)

Tests used:
human T cells = experiment: Differentiation of peripheral blood T cells into Th1 / Th2 cells (IL-12, anti-CD3/CD28, flow cytometry); type: cell-based; details: FIG. 2; for concentration exhibiting the effect of inhibiting differentiation of T cells into Th1 cells / concentration exhibiting the effect of promoting differentiation of T cells into Th2 cells: human peripheral blood cells, IL-12 100 ng/mL, four days; for concentration exhibiting the effect of inhibiting differentiation of T cells into Th1 cells: CD4-positive IFN-γ-positive cells; for concentration exhibiting the effect of promoting differentiation of T cells into Th2 cells: CD4-positive IL-4-positive cells
Procedure: Peripheral blood (10 mL) was collected from six healthy adults in heparin, and […] were isolated through the Ficol-Hypaque method (i.e., a customary method). The thus-isolated cells were diluted to 1×10^6/mL and then inoculated into a 24-well culture plate coated with CD3 and CD28 antibodies (Falcon), followed by culturing for four days in the presence of IL-12 (100 ng/mL), to thereby induce differentiation of T cells into Th1 cells. Atorvastatin or pitavastatin (0.01 to 10 μM) was added at the time of initiation of culturing, and the effect of each drug on differentiation of T cells into Th1 cells was examined. After completion of culturing, cells were washed thrice with PBS, and cytokines (IFN-γ and IL-4) in the cells and CD4 on the surfaces of the cells were stained in a conventional manner. The ratio of Th1 (CD4-positive, IFN-γ-positive cells) or Th2 (CD4-positive, IL-4-positive cells) to all the CD4-positive T cells was determined through flow cytometry.
Specifically, lymphocytes were stimulated with anti-CD3 antibody and anti-CD28 antibody, and the amounts of INF-γ (Th1 cytokine) and IL-4 (Th2 cytokine) in the cells were determined through flow cytometry, to thereby compare pitavastatin with atorvastatin in terms of the effect of inhibiting differentiation of peripheral blood T cells into Th1 cells, and the effect of promoting differentiation of peripheral blood T cells into Th2 cells.

[1] = system: Th1 cells derived from spleen cells of MOG-immunized mice; experiment: Inhibition of activation of Th1 cells: IFN-γ production by MOG-stimulated spleen cells of EAE mice (ELISA); type: cell-based, C57BL/6 mice; details: FIG. 1; for concentration that significantly reduced the amount of IFN-γ produced by Th1 cells (inhibited activation of Th1 cells): spleen cells of MOG-immunized EAE mice, day 14, stimulated with MOG, IFN-γ in supernatant by ELISA
Procedure: Five C57BL/6 mice were immunized with myelin oligodendrocyte glycoprotein (MOG), and mice with experimental autoimmune encephalomyelitis ([…] model of multiple sclerosis) were prepared in a conventional manner. On day 14 after immunization, spleen cells were collected from each mouse and cultured in a 24-well culture plate coated with CD3 and CD28 antibodies, and then stimulated with MOG in the presence of pitavastatin or atorvastatin, to thereby activate Th1 cells. The Th1 cytokine (IFN-γ) concentration of the supernatant of the resultant cell culture was determined through ELISA.

Row | SMILES | concentration exhibiting the effect of inhibiting differentiation of T cells into Th1 cells (human T cells) | concentration exhibiting the effect of promoting differentiation of T cells into Th2 cells (human T cells) | concentration that significantly reduced the amount of IFN-γ produced by Th1 cells (inhibited activation of Th1 cells) [1] | Th1/Th2 ratio improving effect relative to atorvastatin (human T cells; versus atorvastatin) | effect of promoting differentiation of T cells into Th2 cells relative to atorvastatin (human T cells; versus atorvastatin) | effect of inhibiting activation of Th1 cells relative to atorvastatin ([1]; versus atorvastatin, from amount of IFN-γ produced)
1 | CC(C)c1c(C(=O)Nc2ccccc2)c(-c2ccccc2)c(-c2ccc(F)cc2)n1CC[C@@H](O)C[C@@H](O)CC(=O)O [atorvastatin] | at least 10 μM | at least 10 μM | 25 µM | – | – | –
2 | O=C(O)C[C@H](O)C[C@H](O)/C=C/c1c(C2CC2)nc2ccccc2c1-c1ccc(F)cc1 [pitavastatin, (3R,5S,6E)-7-[2-cyclopropyl-4-(4-fluorophenyl)-3-quinolyl]-3,5-dihydroxy-6-heptenoic acid] | 1 µM | 1 µM | ≥ 10 µM | 10 fold | 10 fold | 2.5 fold
